Laboratory results reported in ChEMBL document CHEMBL1949517, “Stylissamide X, a new proline-rich cyclic octapeptide as an inhibitor of cell migration, from an Indonesian marine sponge of Stylissa sp” (Bioorg Med Chem Lett, 2012).
The source made the active and inactive calls. The rule behind the calls is not given here. Where a SMILES comes first, the peptide text is derived from it.

Tests used:
HeLa [1] = test: Anti-cell migration activity at human HeLa cells at 0.1 to 10 uM after 24 hrs by wound healing assay; assay type: functional, cell-based
[2] = Cytotoxicity against human HeLa cells assessed as cell viability at 10 uM after 24 hrs by MTT assay; assay type: cell-based; settings: read-out: Activity
HeLa [3] = test: Anti-cell migration activity at EGF-induced human HeLa cells at 0.1 to 10 uM after 24 hrs by Giemsa-staining based chemotaxicell chamber assay; assay type: functional

CC[C@H](C)[C@@H]1NC(=O)[C@@H]2CCCN2C(=O)[C@H]([C@@H](C)O)NC(=O)[C@H](CC(C)C)NC(=O)[C@@H]2CCCN2C(=O)[C@H](Cc2ccccc2)NC(=O)[C@H](Cc2c[nH]c3ccccc23)NC(=O)[C@@H]2CCCN2C1=O [STYLISSAMIDE X] (cyclo(FPLTPIPW))
Activity (HeLa [1]): Active
viability at 24 h, 10 µM [2]: > 75%
Activity (HeLa [3]): Active
